Experimental findings from patent publication US20050288307A1, “Anti-viral compounds” (priority 2002, published 2005) are described below.

In one assay the target is CDK1/Cyclin B (Homo sapiens, UniProt P06493). The assay is described as follows: CDK1/cyclin B kinase assay (GST-Rb phosphorylation).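 Note: Enzyme: His-tagged CDK1/Cyclin B co-expressed in baculovirus-infected Sf9 insect cells, purified via metal-chelate chromatography.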
A further assay deals with CDK9/cyclin T1 (Homo sapiens, UniProt P50750). The assay is described as follows: CDK9 assay (CTD peptide substrate). The class given is biochemical. The following applies: Table 3; read-out: Average IC50 CDK9 cyclin T1. As for the experimental part: CTD peptide substrate (biotinyl-Ahx-(Tyr-Ser-Pro-Thr-Ser-Pro-Ser)4-NH2; 1-2 mg/mL) and recombinant human CDK7/cyclin H, CDK9/cyclin T1, or CDK9/cyclin K (0.5-2 μg) were incubated for 45 min at 30° C. in the presence of varying amounts of test compound in 20 mM MOPS pH 7.2, 25 mM β-glycerophosphate, 5 mM EGTA, 1 mM DTT, 1 mM sodium vanadate, 15 mM MgCl2, and 100 μM ATP (containing a trace amount of ^32PγATP) in a total volume of 25 μL in a 96-well microtiter plate. The reaction was stopped by placing the plate on ice for 2 min. Avidin (50 μg) was added to each well, and the plate was incubated at room temp for 30 min. The samples were transferred to a 96-well P81 filter plate, and washed (4×200 μL per well) with 75 mM phosphoric acid. Microscint 40 scintillation liquid (50 μL) was added to each well, and the amount of ^32P incorporation for each sample was measured using a Packard Topcount microplate scintillation counter.
Sequence of CDK9/cyclin T1 (P50750 whole entry): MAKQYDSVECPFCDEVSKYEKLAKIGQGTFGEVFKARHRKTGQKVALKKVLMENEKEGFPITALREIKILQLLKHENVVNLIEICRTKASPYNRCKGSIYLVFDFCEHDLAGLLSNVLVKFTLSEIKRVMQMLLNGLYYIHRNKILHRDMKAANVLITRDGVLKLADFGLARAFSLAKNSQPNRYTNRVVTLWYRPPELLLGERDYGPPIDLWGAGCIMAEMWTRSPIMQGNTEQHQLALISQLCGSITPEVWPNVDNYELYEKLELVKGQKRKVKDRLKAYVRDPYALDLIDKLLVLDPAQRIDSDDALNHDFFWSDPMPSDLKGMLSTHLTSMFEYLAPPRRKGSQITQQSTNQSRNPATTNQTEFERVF
Sequence of CDK9/cyclin T1 (O60563 whole entry partner): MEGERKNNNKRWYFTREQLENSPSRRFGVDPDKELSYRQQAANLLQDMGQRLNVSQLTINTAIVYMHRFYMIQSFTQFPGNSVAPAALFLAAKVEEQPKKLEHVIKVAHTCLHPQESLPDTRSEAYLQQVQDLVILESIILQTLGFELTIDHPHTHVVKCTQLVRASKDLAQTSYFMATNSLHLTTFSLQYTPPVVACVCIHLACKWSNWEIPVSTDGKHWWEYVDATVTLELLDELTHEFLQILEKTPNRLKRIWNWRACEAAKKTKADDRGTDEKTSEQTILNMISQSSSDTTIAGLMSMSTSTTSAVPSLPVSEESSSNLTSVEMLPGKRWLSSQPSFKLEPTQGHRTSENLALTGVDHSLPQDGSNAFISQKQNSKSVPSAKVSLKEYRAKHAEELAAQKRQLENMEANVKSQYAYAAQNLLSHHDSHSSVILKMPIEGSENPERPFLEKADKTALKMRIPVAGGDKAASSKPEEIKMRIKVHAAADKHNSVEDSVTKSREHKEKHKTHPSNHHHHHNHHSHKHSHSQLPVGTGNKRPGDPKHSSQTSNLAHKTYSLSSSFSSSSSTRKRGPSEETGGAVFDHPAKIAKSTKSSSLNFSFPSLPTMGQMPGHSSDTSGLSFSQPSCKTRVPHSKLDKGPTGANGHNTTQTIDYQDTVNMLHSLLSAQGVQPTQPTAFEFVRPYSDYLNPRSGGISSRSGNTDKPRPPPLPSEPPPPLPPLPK

Another assay deals with T1, CDK2/Cyclin E (Homo sapiens, UniProt P24941).
T1 construct: His; made in house; host or cells: Sf9 insect cells (baculovirus)
As to the kind of experiment: CDK2/cyclin E kinase assay (GST-Rb phosphorylation).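 Note: enzyme source: His-tagged CDK2/cyclin E complex co-expressed recombinantly in Sf9 insect cells using baculovirus constructs.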 It is filed as biochemical. As to conditions: Table 3; read-out: Average IC50 CDK2 cyclin E1.

The next assay deals with CDK4/Cyclin D1 (Homo sapiens, UniProt P11802). As to the kind of experiment: CDK4/cyclin D1 kinase assay (GST-Rb phosphorylation). As to conditions: Table 3; read-out: Average IC50 CDK4 cyclin D1. It is filed as biochemical.
Sequence of CDK4/Cyclin D1 (P11802 whole entry, species assumed): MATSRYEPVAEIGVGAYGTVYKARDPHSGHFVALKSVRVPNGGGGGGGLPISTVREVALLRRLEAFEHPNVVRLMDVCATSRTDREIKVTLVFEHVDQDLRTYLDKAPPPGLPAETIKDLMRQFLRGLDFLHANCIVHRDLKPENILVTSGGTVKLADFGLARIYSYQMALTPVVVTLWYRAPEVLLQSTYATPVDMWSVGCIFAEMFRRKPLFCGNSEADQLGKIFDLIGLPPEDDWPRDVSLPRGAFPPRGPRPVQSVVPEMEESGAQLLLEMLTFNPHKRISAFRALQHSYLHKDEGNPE
Sequence of CDK4/Cyclin D1 (P24385 whole entry partner, species assumed): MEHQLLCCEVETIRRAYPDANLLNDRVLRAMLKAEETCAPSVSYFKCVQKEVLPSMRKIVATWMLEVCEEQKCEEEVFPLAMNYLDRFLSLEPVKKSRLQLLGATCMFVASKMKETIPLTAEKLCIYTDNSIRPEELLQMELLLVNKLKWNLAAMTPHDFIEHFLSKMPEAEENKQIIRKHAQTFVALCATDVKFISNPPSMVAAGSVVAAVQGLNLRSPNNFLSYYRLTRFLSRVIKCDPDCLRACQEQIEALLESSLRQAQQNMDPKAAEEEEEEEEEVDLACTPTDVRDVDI

SMILES strings stand for the structures.

Sequence of CDK1/Cyclin B (P06493 whole entry, species assumed): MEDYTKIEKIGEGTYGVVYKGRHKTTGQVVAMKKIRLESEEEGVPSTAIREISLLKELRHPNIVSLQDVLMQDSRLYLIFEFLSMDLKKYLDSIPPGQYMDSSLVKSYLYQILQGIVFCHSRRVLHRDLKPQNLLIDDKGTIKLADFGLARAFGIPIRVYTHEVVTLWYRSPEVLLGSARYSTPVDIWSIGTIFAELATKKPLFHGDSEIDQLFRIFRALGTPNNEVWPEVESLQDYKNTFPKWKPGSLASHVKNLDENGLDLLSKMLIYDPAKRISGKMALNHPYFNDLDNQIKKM
Sequence of CDK1/Cyclin B (P14635 whole entry partner, species assumed): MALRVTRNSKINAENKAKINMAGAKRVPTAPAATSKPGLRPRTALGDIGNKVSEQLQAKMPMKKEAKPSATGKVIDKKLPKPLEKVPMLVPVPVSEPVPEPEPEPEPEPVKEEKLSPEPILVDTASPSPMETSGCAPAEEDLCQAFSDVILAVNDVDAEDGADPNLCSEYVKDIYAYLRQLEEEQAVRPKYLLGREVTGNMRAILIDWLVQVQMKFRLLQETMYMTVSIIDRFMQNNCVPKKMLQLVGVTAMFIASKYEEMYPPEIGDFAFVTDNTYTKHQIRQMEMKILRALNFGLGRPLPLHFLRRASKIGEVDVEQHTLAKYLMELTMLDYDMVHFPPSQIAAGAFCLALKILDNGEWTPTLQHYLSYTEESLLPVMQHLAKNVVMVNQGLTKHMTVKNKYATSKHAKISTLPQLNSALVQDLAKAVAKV
Protocol for CDK2/Cyclin E: His-tagged CDK2/Cyclin E and CDK1/Cyclin B may be co-expressed and PKCα singularly expressed in Sf 9 insect cells infected with the appropriate baculovirus constructs. The cells are harvested two days after infection by low speed centrifugation and the proteins purified from the insect cell pellets by Metal-chelate chromatography. Briefly, the insect cell pellet is lysed in Buffer A (10 mM Tris-HCl, pH 8.0, 150 mM NaCl, 0.02% NP40 and 5 mM β-marcaptoethanol, 1 mM NaF. 1 mM Na3VO4 and Protease Inhibitors Coctail (Sigma) containing AEBSF, pepstatin A, E 64, bestatin, leupeptin) by sonication. The soluble fraction is cleared by centrifugation and loaded onto Ni-NTA-Agarose (Quiagen). Non bound proteins were washed off with 300 mM NaCl, 5-15 mM Imidazole in Buffer A and the bound proteins eluted with 250 mM Imidazole in Buffer A. The purified proteins are extensively dialyzed against Storage buffer (20 mM HEPES pH 7.4, 50 mM NaCl, 2 mM DTT, 1 mM EDTA, 1 mM EGTA, 0.02% NP40, 10% v/v Glycerol) aliquoted and stored at −70° C.

As usually defined, the IC50 is the concentration at which inhibition is half-maximal. For `CCNc1nc(C)c(-c2ccnc(Nc3ccc(Cl)cc3)n2)s1` [Compound 134, (4-Chloro-phenyl)-[4-(2-ethylamino-4-methyl-thiazol-5-yl)-pyrimidin-2-yl]-amine], the IC50 on CDK1/Cyclin B turned out to be 22 µM; at CDK9/cyclin T1, 5.9 µM; on CDK2/Cyclin E it was 2 µM.

As to `Cc1nc(C)c(-c2ccnc(Nc3ccc(Cc4ccncc4)cc3)n2)s1` [Compound 101, [4-(2,4-Dimethyl-thiazol-5-yl)-pyrimidin-2-yl]-(4-pyridin-4-ylmethyl-phenyl)-amine], the IC50 was 1.1 µM on CDK4/Cyclin D1 and 0.69 µM on CDK2/Cyclin E.

Turning to `COc1ccc(Nc2nccc(-c3sc(C)nc3C)n2)cc1Cl` [Compound 39, (3-Chloro-4-methoxy-phenyl)-[4-(2,4-dimethyl-thiazol-5-yl)-pyrimidin-2-yl]-amine], the figures for the IC50 against CDK1/Cyclin B, on CDK4/Cyclin D1 and at CDK2/Cyclin E were 40 µM, above 50 µM and 5.6 µM, respectively.

As to `Cc1nc(C)c(-c2ccnc(Nc3ccc(C#N)cc3)n2)s1` [Compound 35, 4-[4-(2,4-Dimethyl-thiazol-5-yl)-pyrimidin-2-ylamino]-benzonitrile], the IC50 is above 50 µM against CDK1/Cyclin B, above 50 µM on CDK4/Cyclin D1 and 8 µM at CDK2/Cyclin E.

Consider `Cc1nc(C)c(-c2ccnc(Nc3ccc(O)c([N+](=O)[O-])c3)n2)s1` [Compound 32, 4-[4-(2,4-Dimethyl-thiazol-5-yl)-pyrimidin-2-ylamino]-2-nitro-phenol], for which the values for the concentration for half-maximal inhibition (IC50) at CDK1/Cyclin B, on CDK4/Cyclin D1 and at CDK9/cyclin T1 were 14 µM, 0.38 µM and 0.055 µM, respectively.

With `Cc1nc(N(C)C)sc1-c1ccnc(Nc2cccc(Cl)c2)n1` [Compound 143, (3-Chloro-phenyl)-[4-(2-dimethylamino-4-methyl-thiazol-5-yl)-pyrimidin-2-yl]-amine], the values for the IC50 on CDK4/Cyclin D1 and on CDK2/Cyclin E were 5.4 µM and 0.89 µM, respectively.

With `COC(=O)c1ccc(Nc2nccc(-c3sc(C)nc3C)n2)cc1` [Compound 37, 4-[4-(2,4-Dimethyl-thiazol-5-yl)-pyrimidin-2-ylamino]-benzoic acid methyl ester], the IC50 was 38 µM on CDK1/Cyclin B, 17 µM on CDK4/Cyclin D1 and 7.5 µM at CDK2/Cyclin E.

Take `Cc1nc(N)sc1-c1ccnc(Nc2ccc(C(F)(F)F)cc2)n1` [Compound 110, [4-(2-Amino-4-methyl-thiazol-5-yl)-pyrimidin-2-yl]-(4-trifluoromethyl-phenyl)-amine]: the IC50 stood at 5.8 µM on CDK4/Cyclin D1 and 0.68 µM at CDK2/Cyclin E.

As to `Cc1nc(N(C)C)sc1-c1ccnc(Nc2ccc(F)cc2)n1` [Compound 142, [4-(2-Dimethylamino-4-methyl-thiazol-5-yl)-pyrimidin-2-yl]-(4-fluoro-phenyl)-amine], the half-maximal inhibitory concentration (IC50) on CDK4/Cyclin D1 came out at 4 µM; at CDK2/Cyclin E, 1.3 µM.

`Cc1nc(N)sc1-c1ccnc(Nc2ccc(Br)cc2)n1` [Compound 120, [4-(2-Amino-4-methyl-thiazol-5-yl)-pyrimidin-2-yl]-(4-bromo-phenyl)-amine]: the IC50 on CDK4/Cyclin D1 was 1.6 µM; at CDK2/Cyclin E, 1 µM.

With `Cc1nc(N)sc1-c1ccnc(Nc2cccc(Cl)c2)n1` [Compound 112, [4-(2-Amino-4-methyl-thiazol-5-yl)-pyrimidin-2-yl]-(3-chloro-phenyl)-amine], the figures for the IC50 on CDK4/Cyclin D1 and on CDK2/Cyclin E were 0.071 µM and 0.018 µM, respectively.

As for `Cc1nc(N)sc1-c1ccnc(Nc2ccc([N+](=O)[O-])cc2)n1` [Compound 151, [4-(2-Amino-4-methyl-thiazol-5-yl)-pyrimidin-2-yl]-(4-nitro-phenyl)-amine], the results for the IC50 at CDK4/Cyclin D1 and on CDK2/Cyclin E were above 50 µM and 0.18 µM, respectively.

On to `Cc1nc(N(C)C)sc1-c1ccnc(Nc2ccc(Cl)cc2)n1` [Compound 141, (4-Chloro-phenyl)-[4-(2-dimethylamino-4-methyl-thiazol-5-yl)-pyrimidin-2-yl]-amine], for which the IC50 worked out at 4.8 µM at CDK4/Cyclin D1 and 3.9 µM on CDK2/Cyclin E.
